A short description of data set [1]: Cytotoxicity against human DU145 cells assessed as reduction in cell viability after 72 hrs by MTT assay. Format: functional, cell-based, DU-145. The settings on record: Homo sapiens, DU-145, 72 h. (In general: Tetrazolium dyes change colour on reduction, which living cells bring about.)
Data set [2] can be described thus: Cytotoxicity against mouse CT26 cells assessed as reduction in cell viability after 72 hrs by MTT assay. It counts as functional, cell-based. The conditions noted are these: Mus musculus, CT26, 72 h.
In data set [3] the test system is NCI60. Kind of data set: Cytotoxicity against human NCI60 cells assessed as cell growth inhibition up to 10 uM after 48 hrs by SRB assay. Format: functional, cell-based.
Data set [4] can be described thus: cells. The settings on record: Homo sapiens, MCF7, 72 h.
Description: Cytotoxicity against human MCF7 cells assessed as reduction in cell viability after 72 hrs by MTT assay
The nature of data set [5]: cells. The settings on record: Homo sapiens, HCT-116, 72 h.
Description: Cytotoxicity against human HCT116 cells assessed as reduction in cell viability after 72 hrs by MTT assay
The target of data set [6] is Induced myeloid leukemia cell differentiation protein Mcl-1 (Homo sapiens, UniProt Q07820). Nature of the data set: Inhibition of FAM-Bid binding to human MCL1 expressed in Escherichia coli BL21 after 30 mins by fluorescence polarization assay.
Chain of Induced myeloid leukemia cell differentiation protein Mcl-1 (Q07820 whole entry): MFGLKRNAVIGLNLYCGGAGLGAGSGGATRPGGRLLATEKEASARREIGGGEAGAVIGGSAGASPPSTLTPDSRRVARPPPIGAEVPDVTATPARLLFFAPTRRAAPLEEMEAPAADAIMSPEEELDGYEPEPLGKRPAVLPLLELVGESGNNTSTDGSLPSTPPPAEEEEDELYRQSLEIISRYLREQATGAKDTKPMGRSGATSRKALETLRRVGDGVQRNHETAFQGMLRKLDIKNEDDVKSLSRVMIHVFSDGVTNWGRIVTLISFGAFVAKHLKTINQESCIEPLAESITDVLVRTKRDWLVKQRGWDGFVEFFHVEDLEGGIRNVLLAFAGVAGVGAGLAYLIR
Data set [7] has as its target Apoptosis regulator Bcl-2 (Homo sapiens, UniProt P10415). Kind of data set: Inhibition of FAM-Bid binding to human BCL2 expressed in Escherichia coli BL21 after 30 mins by fluorescence polarization assay. A general note: Fluorescence polarisation rises when a labelled molecule tumbles more slowly, as on binding a larger partner.
Data set [8] can be described thus: Cytotoxicity against HEK293T cells assessed as reduction in cell viability at 0.33 to 100 uM after 72 hrs by MTT assay. The conditions noted are these: human, hek-293t. It counts as toxicity, cell-based.
The nature of data set [9]: Cytotoxicity against African green monkey Vero cells assessed as reduction in cell viability at 0.33 to 100 uM after 72 hrs by MTT assay. Format: toxicity, cell-based. The settings on record: chlorocebus sabaeus.

The source made the active and inactive calls. The rule behind the calls is not given here.

Chain of Apoptosis regulator Bcl-2 (P10415 whole entry): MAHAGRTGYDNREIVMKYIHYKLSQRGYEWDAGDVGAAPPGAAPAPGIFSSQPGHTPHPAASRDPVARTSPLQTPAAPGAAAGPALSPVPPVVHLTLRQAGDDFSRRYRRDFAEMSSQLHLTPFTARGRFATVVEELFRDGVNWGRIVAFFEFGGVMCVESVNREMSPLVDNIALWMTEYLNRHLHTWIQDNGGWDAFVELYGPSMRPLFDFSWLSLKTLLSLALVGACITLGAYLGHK

For orientation: IC50 means the midpoint of a concentration-inhibition curve. For `Cc1cc2c(c(O)c1-c1c(C)cc3c(c1O)/C(=C/NCc1ccco1)C(=O)C(O)=C3C(C)C)/C(=C/NCc1ccco1)C(=O)C(O)=C2C(C)C`, the IC50 in data set [1] is 15.5 µM; in [2], greater than 100 µM; in data set [4] it was greater than 100 µM; in data set [5], 42.4 µM. Also, the “growth inhibition (GI)” value in [3] is “Active”.

For orientation: Ki means the dissociation constant of the complex between target and ligand, obtained from inhibition or displacement. For the compound `Cc1cc2c(c(O)c1-c1c(C)cc3c(c1O)/C(=C/NCCCC(=O)O)C(=O)C(O)=C3C(C)C)/C(=C/NCCCC(=O)O)C(=O)C(O)=C2C(C)C`, the IC50 is 18.1 µM in [1]; 28.8 µM in [2]; 0.661 µM in [6]; 0.596 µM in data set [7]; 20 µM in data set [4]; 32.3 µM in [5]. For the same compound, the values for the Ki in data set [6] and in [7] were 0.094 µM and 0.235 µM, respectively. The Activity entry in [8] and in data set [9] was “Non-Toxic” each time.

Consider `COC(=O)[C@H](CCSC)N/C=C1\C(=O)C(O)=C(C(C)C)c2cc(C)c(-c3c(C)cc4c(c3O)/C(=C/N[C@@H](CCSC)C(=O)OC)C(=O)C(O)=C4C(C)C)c(O)c21`, for which the 50% inhibitory concentration (IC50) is 17.7 µM in data set [1], greater than 100 µM in [2], greater than 100 µM in data set [4] and 0.52 µM in data set [5].

Take `Cc1cc2c(c(O)c1-c1c(C)cc3c(c1O)/C(=C/NCCC(=O)O)C(=O)C(O)=C3C(C)C)/C(=C/NCCC(=O)O)C(=O)C(O)=C2C(C)C`: the IC50 in data set [1] was determined as 21.6 µM; in [2], 67.3 µM; in data set [4] it was 19.4 µM; in [5], 21 µM. In addition, the Activity result in [8] and in data set [9] was “Non-Toxic” in each case.

Regarding `Cc1cc2c(c(O)c1-c1c(C)cc3c(c1O)/C(=C/NC(C)(C)C(C)(C)C)C(=O)C(O)=C3C(C)C)/C(=C/NC(C)(C)C(C)(C)C)C(=O)C(O)=C2C(C)C`, the IC50 is greater than 100 µM in data set [1], 5.4 µM in data set [2], greater than 100 µM in data set [4] and greater than 100 µM in [5]. In addition, in data set [3], the “growth inhibition (GI)” value is “Active”.

As for `COC(=O)CCCN/C=C1\C(=O)C(O)=C(C(C)C)c2cc(C)c(-c3c(C)cc4c(c3O)/C(=C/NCCCC(=O)OC)C(=O)C(O)=C4C(C)C)c(O)c21` (stereo in doubt; (-)-16), in data set [6], the concentration for half-maximal inhibition (IC50) stood at 0.937 µM and the inhibition constant (Ki) worked out at 0.178 µM. In addition, in data set [7], the half-inhibitory concentration (IC50) was determined as 0.375 µM and affinity was put at a Ki of 0.131 µM.

In the case of `Cc1cc2c(c(O)c1-c1c(C)cc3c(c1O)/C(=C/NC(C)(C)C)C(=O)C(O)=C3C(C)C)/C(=C/NC(C)(C)C)C(=O)C(O)=C2C(C)C`, the IC50 was 17.2 µM in [1], 12.8 µM in data set [2], greater than 100 µM in data set [4] and greater than 100 µM in data set [5]. In data set [3], the “growth inhibition (GI)” value is “Active”.

As to `Cc1cc2c(c(O)c1-c1c(C)cc3c(c1O)/C(=C/NC14CC5CC(CC(C5)C1)C4)C(=O)C(O)=C3C(C)C)/C(=C/NC13CC4CC(CC(C4)C1)C3)C(=O)C(O)=C2C(C)C`, the IC50 in data set [1], in data set [2], in data set [4] and in data set [5] was greater than 100 µM each time.

On to `COC(=O)CCN/C=C1\C(=O)C(O)=C(C(C)C)c2cc(C)c(-c3c(C)cc4c(c3O)/C(=C/NCCC(=O)OC)C(=O)C(O)=C4C(C)C)c(O)c21`, for which the IC50 in data set [1] came to 9.47 µM; in data set [2] it was 4.25 µM; in data set [6] it was 2.96 µM; in data set [7] it was 0.286 µM; in data set [4], 5.64 µM; in [5], 5.24 µM. The results for the Ki in data set [6] and in data set [7] were 0.579 µM and 0.09 µM, respectively. Moreover, the Activity result in [8] and in data set [9] was “Non-Toxic” each time.

As to `Cc1cc2c(c(O)c1-c1c(C)cc3c(c1O)/C(=C/NC1CCC(C(C)(C)C)CC1)C(=O)C(O)=C3C(C)C)/C(=C/NC1CCC(C(C)(C)C)CC1)C(=O)C(O)=C2C(C)C` (configuration not stated), the IC50 is greater than 100 µM in [1], 21.7 µM in data set [2], greater than 100 µM in data set [4] and greater than 100 µM in data set [5].

In data set [6], `COC(=O)CCCN/C=C1\C(=O)C(O)=C(C(C)C)c2cc(C)c(-c3c(C)cc4c(c3O)/C(=C/NCCCC(=O)OC)C(=O)C(O)=C4C(C)C)c(O)c21` (stereo in doubt; (+)-16) returned an IC50 of 1.25 µM and an inhibitory constant (Ki) of 0.24 µM. In data set [7], the half-maximal inhibitory concentration (IC50) is 0.452 µM and affinity was put at a Ki of 0.167 µM.

Regarding `COC(=O)[C@@H](N/C=C1\C(=O)C(O)=C(C(C)C)c2cc(C)c(-c3c(C)cc4c(c3O)/C(=C/N[C@H](C(=O)OC)C(C)C)C(=O)C(O)=C4C(C)C)c(O)c21)C(C)C`, the IC50 amounted to 12.1 µM in data set [1], 5.85 µM in data set [2], 77.3 µM in data set [4] and 77.1 µM in data set [5].

With `Cc1cc2c(c(O)c1-c1c(C)cc3c(c1O)/C(=C/NCCCCCC(=O)O)C(=O)C(O)=C3C(C)C)/C(=C/NCCCCCC(=O)O)C(=O)C(O)=C2C(C)C`, the IC50 in data set [1] came out at 27.5 µM; in [2] it was 4.54 µM; in data set [4], 17.7 µM; in data set [5], 23.1 µM. For the same compound, the Activity entry in [8] and in [9] was “Non-Toxic” in each case.

With `COC(=O)CCCN/C=C1\C(=O)C(O)=C(C(C)C)c2cc(C)c(-c3c(C)cc4c(c3O)/C(=C/NCCCC(=O)OC)C(=O)C(O)=C4C(C)C)c(O)c21` (stereo in doubt; 16), the “growth inhibition (GI)” value in [3] was “Active”.

Regarding `COC(=O)c1ccccc1N/C=C1\C(=O)C(O)=C(C(C)C)c2cc(C)c(-c3c(C)cc4c(c3O)/C(=C/Nc3ccccc3C(=O)OC)C(=O)C(O)=C4C(C)C)c(O)c21`, the IC50 stood at 20.9 µM in [1], 21.4 µM in data set [2], 24.7 µM in data set [4] and 37.3 µM in data set [5].

As to `Cc1cc2c(c(O)c1-c1c(C)cc3c(c1O)/C(=C/N[C@H]1C[C@@H]4C[C@H]([C@@H]1C)C4(C)C)C(=O)C(O)=C3C(C)C)/C(=C/N[C@H]1C[C@@H]3C[C@H]([C@@H]1C)C3(C)C)C(=O)C(O)=C2C(C)C`, the 50% inhibitory concentration (IC50) in [1], in [2], in data set [4] and in data set [5] was greater than 100 µM each time.

For the compound `Cc1cc2c(c(O)c1-c1c(C)cc3c(c1O)/C(=C/NCCS(=O)(=O)O)C(=O)C(O)=C3C(C)C)/C(=C/NCCS(=O)(=O)O)C(=O)C(O)=C2C(C)C`, the 50% inhibitory concentration (IC50) in data set [1] is 28.9 µM; in data set [2], 3.19 µM; in [4], 15.9 µM; in [5] it was 48.9 µM.

Consider `Cc1cc2c(c(O)c1-c1c(C)cc3c(c1O)/C(=C/NCCCCC(=O)O)C(=O)C(O)=C3C(C)C)/C(=C/NCCCCC(=O)O)C(=O)C(O)=C2C(C)C`, for which the IC50 was 20.7 µM in data set [1]; 4.46 µM in data set [2]; 0.478 µM in data set [6]; 0.458 µM in [7]; 15.9 µM in [4]; 22.2 µM in data set [5]. The Ki is 0.085 µM in data set [6] and 0.171 µM in data set [7]. Also, the Activity entry in data set [8] and in data set [9] was “Non-Toxic” throughout.

Regarding `Cc1cc2c(c(O)c1-c1c(C)cc3c(c1O)/C(=C/NCCCS(=O)(=O)O)C(=O)C(O)=C3C(C)C)/C(=C/NCCCS(=O)(=O)O)C(=O)C(O)=C2C(C)C`, the IC50 was 36 µM in data set [1], 35.6 µM in data set [2], 17.7 µM in data set [4] and 43.1 µM in [5].

For `Cc1cc2c(c(O)c1-c1c(C)cc3c(c1O)/C(=C/NCc1ccc4c(c1)OCO4)C(=O)C(O)=C3C(C)C)/C(=C/NCc1ccc3c(c1)OCO3)C(=O)C(O)=C2C(C)C`, the IC50 in data set [1] is 29.2 µM; in data set [2], greater than 100 µM; in data set [4], greater than 100 µM; in data set [5] it was 8.3 µM.
